Laboratory results as given in patent publication US10047345B2, “Culturing of mesenchymal stem cells with FGF4 and nicotinamide” (Gamida-Cell Ltd., priority 2012, dated 2018).
“Also recorded” adds a separate entry of the source.

Tests used:
mesenchymal stem cells [1] = assay: Expansion of mesenchymal stem cells with growth factors with and without nicotinamide (cumulative cell count); assay type: cell-based, human; conditions: NAM 5 mM, FGF4 50 ng/ml
Procedure: Bone marrow derived and adipose tissue derived mesenchymal cells were isolated based on their plastic adherence potential in expansion medium containing: High glucose DMEM and 10% Fetal Bovine Serum (FBS, Hyclone, Logan, Utah, USA) supplemented with 0.05 mg/ml Gentamicin (Sigma) and 2 mM L-glutamine (Biological Industries, Israel). Cells were allowed to adhere for 3-4 days and non-adherent cells were washed out with medium changes. The medium was further exchanged with fresh medium every 3-4 days.
Once adherent cells reached approximately 80-90% confluency, they were detached with 0.25% trypsin-EDTA (Sigma), washed twice in DMEM and 10% Fetal Bovine Serum, with centrifugation, 400 g, 5 minutes, and replated at a 1:2 to 1:1000 dilution under the same culture conditions.
Cell number was measured using Cedex Automated Cell Counter (Innovatis). The cells were diluted 1:2 in Trypan Blue (Sigma) and cell number was measured automatically under microscope. […]
Mesenchymal stem cells were selected and cultured in the presence of particular growth factors (basic fibroblast growth factor—bFGF, heparin binding epidermal growth factor—HB-EGF, fibroblast growth factor 4—FGF-4 and platelet derived growth factor, homodimer, subunit B, PDGF-BB) in the presence and absence of nicotinamide for three or four passages and the number and size of the cells was calculated. […]

[2] = tested on: adipose tissue derived mesenchymal stem cells; assay: Expansion and phenotype of adipose tissue derived MSCs with nicotinamide; assay type: cell-based, human
Procedure: Cell number was measured using Cedex Automated Cell Counter (Innovatis). The cells were diluted 1:2 in Trypan Blue (Sigma) and cell number was measured automatically under microscope.

mesenchymal stem cells [3] = assay: CFU-F assay; assay type: cell-based, human; conditions: 5 mM nicotinamide
Procedure: Cultured MSCs were seeded in 6-well plates at density of 50-100 cells/cm^2 and maintained with DMEM and 10% FBS. After 14 days the cells were fixed using 10% cold Formalin (Sigma) and stained with Harris Hematoxylin (Sigma). Clones (cluster of more than 50 cells with evident epicenter) are stained blue-purple and counted using microscope.

[4] = tested on: bone marrow-derived mesenchymal stem cells; assay: Senescence evaluation assay (beta-galactosidase staining); assay type: cell-based, human; conditions: 5 passages, 5 mM NAM, X-Gal staining
Procedure: Cultured MSCs were stained using the Senescence beta-Galactosidase Staining Kit (Cell Signaling). The cells are fixed and stained for detection of beta-Galactosidase activity at pH 6 using X-Gal and incubation overnight in 37° C. in dry incubator.

mesenchymal stem cells [5] = assay: In vitro wound healing assay; assay type: cell-based, human; conditions: passage 3, 4 days post wound formation
Procedure: Wound was performed in MSCs cultures at ˜70% confluence using 200 μl or 1000 μl tip. Four days later the cells were fixated using 10% cold Formalin (Sigma) and stained with Harris Hematoxylin (Sigma). The in-vitro wound healing process was evaluated using microscope.

[6] = tested on: bone marrow mesenchymal stem cells; assay: Growth factor secretion into conditioned medium (ELISA); assay type: cell-based, human; conditions: passage 4, 5 mM NAM, 50 ng/ml FGF4
Procedure: In some experiments, the adherent cells were cultured with or without nicotinamide and indicated factors, and 24 hours before passage 4, and the medium replaced with medium without fetal bovine serum or FGF4. Medium from MSC cultured as indicated, and depleted of fetal bovine serum and FGF4 24 hours before passage 4 was collected and assayed by ELISA for growth factors and immune-related factors secreted into the medium ([…] HGF, transforming growth factor beta TGF-β, keratinocyte growth factor KGF and interleukin 6 IL-6). ELISA was carried out using solid phase sandwich ELISA kits specific for human KGF (R&D systems, cat#DKG00), IL-6 (R&D systems, cat#D6050), TGF-β1 (R&D systems, cat#DB100B), HGF (R&D systems, cat#DHG00).

[7] = tested on: umbilical cord-derived CD133+ hematopoietic stem cells; assay: Differentiation and proliferation of ex-vivo cultured hematopoietic stem cells (FACS surface markers); assay type: cell-based
Procedure: Umbilical cord-derived hematopoietic stem cells were isolated using CD133 microbeads and CliniMACS® separator (Miltenyi, Inc. Auburn, Calif.), and cultured for 3 weeks in MEMα supplemented with 50 ng/ml TPO, IL6, SCF, Flt3, fetal bovine serum, ±2.5 or 5 mM nicotinamide, and/or 10, 50 or 200 ng/ml FGF4. After 3 weeks in culture the cells were stained for surface markers (CD38, CD133, CD33, CD19) and the cell populations determined by FACS analysis (see below). Results are expressed as percentage of total population assayed.
At different time points the cells were detached with 0.25% trypsin-EDTA. The cells were washed with a PBS solution containing 1% BSA, and stained (at 4° C. for 30 min) with either fluorescein isothiocyanate (FITC) or phycoerythrin (PE)-conjugated antibodies: 105 PE, 105 FITC (Serotec, Raleigh, N.C.), 45 FITC, 14 FITC, HLA-DR FITC, 106 PE, 31 PE (BD, Franklin Lakes N.J.), 34 PE (Dako, Glostrup, Denmark), 73 PE, HLA class1 PE, 49b PE (Pharmingen, San Diego, Calif.), 29 PE, 44 PE, 54 FITC, 59 PE, 90 PE (BioLegend, San Diego, Calif.). CD133—(AC141) PE (Miltenyi, Auburn, Calif.), CD38 FITC (Dako, Glostrup, Denmark), CD19 FITC (BD Biosciences, Franklin Lakes N.J.), CD33 FITC (BD Bioscience, Franklin Lakes N.J.).
The cells were then washed in the above buffer and analyzed using a FACScalibur® flow cytometer (Becton Dickinson, Franklin Lakes N.J.). The cells were passed at a rate of up to 1000 cells/second, using a 488 nm argon laser beam as the light source for excitation. Emission of 10000 cells was measured using logarithmic amplification, and analyzed using the CellQuest software (Becton Dickinson). Cells stained with FITC- and PE-conjugated isotype control antibodies were used to determine background fluorescence.
Umbilical cord-derived CD133+ hematopoietic stem cells were isolated and cultured for 3 weeks in medium supplemented with early-acting growth factors and fetal bovine serum, nicotinamide and/or FGF4. After 3 weeks in culture the cells were stained for surface markers (CD38, CD133, CD19) and the cell populations determined by FACS analysis. Cell proliferation was assessed by counting total cells at three weeks.

NC(=O)c1cccnc1 [nicotinamide, Nicotinamide]
effect on the ability of FGF4 to increase proliferation of mesenchymal stem cells (mesenchymal stem cells [1]): potentiating effect | differentiation state (surface marker composition) after expansion in nicotinamide ([2]; at least six passages): without induction of differentiation | adipose derived mesenchymal stem cell expansion in culture ([2]; nicotinamide added from passage 3): substantially improved | cumulative CFU-F count (mesenchymal stem cells [3]): increases the cumulative CFU-F count | amount of senescent cells [4]: reduced | wound closure by MSCs (mesenchymal stem cells [5]): higher ability to perform wound closure | hepatocyte growth factor (HGF) in conditioned medium [6]: elevated levels | interleukin 6 (IL-6) secreted into conditioned medium [6]: reduced levels; also recorded: reduction | keratinocyte growth factor (KGF) in conditioned medium [6]: elevated levels | transforming growth factor beta (TGF-β) in conditioned medium [6]: elevated levels | degree of differentiation of hematopoietic progenitor cells (CD38 and CD133-expressing fraction) ([7]; 3 weeks culture, nicotinamide 2.5 or 5 mM, FGF4 10 to 200 ng/ml): decreases significantly | fraction of undifferentiated early progenitors (CD38-CD133+) ([7]; 3 weeks, FIG. 35): significantly greater fraction | differentiation (CD38+ cells) ([7]; 3 weeks, FIG. 36): significant inhibition of differentiation | myeloid lineage differentiation (CD33+ cells) ([7]; 3 weeks, FIG. 37): significant inhibition | lymphoid lineage differentiation (CD19+ cells) ([7]; 3 weeks, FIG. 38): striking inhibition | abundance of committed myeloid or lymphoid cells (CD33, CD19) ([7]; three week cultures): consistently reduced the committed cell fraction
